Test results published in PubChem BioAssay (NCI).
Values joined by “and” are separate entries in the source; they are usually repeats but may differ in a detail not shown here. Equal entries are not always repeated.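 96-well plates; 48 h exposure; 5 concentrations. Endpoints by linear interpolation between flanking doses. Not reached: highest tested concentration assigned. GI50 = concentration required for 50% inhibition of growth. Definition used: TGI = concentration required for complete inhibition of growth.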

Columns and labels:
Assay in all cases: NCI tumour cell line growth inhibition, 48 h
K-562 leukemia = system: K-562 leukemia
NCI-H522 lung = system: NCI-H522 lung
NCI-H226 lung = system: NCI-H226 lung
HOP-92 NSCLC = system: HOP-92 NSCLC
IGROV1 ovarian = system: IGROV1 ovarian
OVCAR-4 ovarian = system: OVCAR-4 ovarian
A498 renal = system: A498 renal
NCI/ADR-RES ovarian = system: NCI/ADR-RES ovarian
HL-60(TB) leukemia = system: HL-60(TB) leukemia
SK-MEL-5 melanoma = system: SK-MEL-5 melanoma
HT29 colon = system: HT29 colon
NCI-H23 lung = system: NCI-H23 lung
SN12C renal = system: SN12C renal
ACHN renal = system: ACHN renal
SNB-75 CNS = system: SNB-75 CNS
MALME-3M melanoma = system: MALME-3M melanoma
MCF7 breast = system: MCF7 breast

## CCN(CC)c1ccc2cc(C(=O)NCc3ccccc3)c(=N)oc2c1
K-562 leukemia
  TGI: > 26 µM
NCI-H522 lung
  TGI: 97.3 µM
NCI-H226 lung
  TGI: > 100 µM
HOP-92 NSCLC
  TGI: > 100 µM
IGROV1 ovarian
  TGI: > 100 µM
OVCAR-4 ovarian
  TGI: > 100 µM
A498 renal
  TGI: > 100 µM
NCI/ADR-RES ovarian
  TGI: > 100 µM
HL-60(TB) leukemia
  TGI: > 100 µM
SK-MEL-5 melanoma
  TGI: > 100 µM
HT29 colon
  TGI: 36 µM
NCI-H23 lung
  TGI: 97 µM
SN12C renal
  TGI: > 100 µM
ACHN renal
  TGI: > 100 µM
SNB-75 CNS
  TGI: > 100 µM
MALME-3M melanoma
  TGI: 63.6 µM
MCF7 breast
  TGI: > 100 µM

## COc1cc(C(C[N+](=O)[O-])SC(C)=O)ccc1OCc1ccccc1 (stereo not given)
K-562 leukemia
  TGI: 5.45 µM
NCI-H522 lung
  TGI: 13.9 µM
NCI-H226 lung
  TGI: 18.1 µM
HOP-92 NSCLC
  TGI: 36.2 µM
IGROV1 ovarian
  TGI: 7.36 µM
OVCAR-4 ovarian
  TGI: 27.7 µM
A498 renal
  TGI: 15.4 µM
NCI/ADR-RES ovarian
  TGI: > 38.3 µM
HL-60(TB) leukemia
  TGI: 1.57 µM
SK-MEL-5 melanoma
  TGI: 21.9 µM
HT29 colon
  TGI: > 20.9 µM
NCI-H23 lung
  TGI: 12.3 µM
SN12C renal
  TGI: 15.7 µM
ACHN renal
  TGI: 24.7 µM
SNB-75 CNS
  TGI: 32.4 µM
MALME-3M melanoma
  TGI: 17.5 µM
MCF7 breast
  TGI: 10.7 µM

## c1ccc(-c2c3c(nc4c2CC[C@H]4NC2=NCCN2)[C@@H](NC2=NCCN2)CC3)cc1
K-562 leukemia
  TGI: > 100 µM
NCI-H522 lung
  TGI: > 100 µM
NCI-H226 lung
  TGI: > 100 µM
HOP-92 NSCLC
  TGI: > 100 µM
IGROV1 ovarian
  TGI: > 100 µM
OVCAR-4 ovarian
  TGI: > 100 µM
A498 renal
  TGI: > 100 µM
NCI/ADR-RES ovarian
  TGI: > 100 µM
HL-60(TB) leukemia
  TGI: > 100 µM
SK-MEL-5 melanoma
  TGI: > 100 µM
HT29 colon
  TGI: > 100 µM
NCI-H23 lung
  TGI: > 100 µM
SN12C renal
  TGI: > 100 µM
ACHN renal
  TGI: > 100 µM
SNB-75 CNS
  TGI: > 100 µM
MALME-3M melanoma
  TGI: > 100 µM
MCF7 breast
  TGI: > 100 µM

## CN1N=C(c2ccccc2)C(C(c2ccccc2[N+](=O)[O-])C2C(=O)N(C)N=C2c2ccccc2)C1=O (stereo not given)
K-562 leukemia
  TGI: > 100 µM
NCI-H522 lung
  TGI: > 100 µM
NCI-H226 lung
  TGI: > 96.5 µM
HOP-92 NSCLC
  TGI: > 100 µM
IGROV1 ovarian
  TGI: > 31.6 µM
OVCAR-4 ovarian
  TGI: > 100 µM
A498 renal
  TGI: > 100 µM
NCI/ADR-RES ovarian
  TGI: > 100 µM
HL-60(TB) leukemia
  TGI: 52 µM
SK-MEL-5 melanoma
  TGI: > 100 µM
HT29 colon
  TGI: > 100 µM
NCI-H23 lung
  TGI: > 100 µM
SN12C renal
  TGI: > 100 µM
ACHN renal
  TGI: > 100 µM
SNB-75 CNS
  TGI: > 100 µM
MALME-3M melanoma
  TGI: > 100 µM
MCF7 breast
  TGI: > 100 µM

## CCN(CC)CCCNc1ccc([N+](=O)[O-])c2nc3ccc(OC)cc3c(N)c12
K-562 leukemia
  TGI: 4.79 µM
NCI-H522 lung
  TGI: 4.69 µM
NCI-H226 lung
  TGI: > 10 µM
HOP-92 NSCLC
  TGI: > 10 µM
IGROV1 ovarian
  TGI: > 5.08 µM
OVCAR-4 ovarian
  TGI: 4.41 µM
A498 renal
  TGI: > 10 µM
NCI/ADR-RES ovarian
  TGI: > 6.02 µM
HL-60(TB) leukemia
  TGI: 4.03 µM
SK-MEL-5 melanoma
  TGI: > 10 µM
HT29 colon
  TGI: 3.95 µM
NCI-H23 lung
  TGI: 4.03 µM
SN12C renal
  TGI: 3.64 µM
ACHN renal
  TGI: > 10 µM
SNB-75 CNS
  TGI: 3.65 µM
MALME-3M melanoma
  TGI: > 10 µM
MCF7 breast
  TGI: > 6.17 µM

## O=C(Cn1c(=O)oc2ccc(C(=O)c3ccc(F)cc3)cc21)c1ccccc1
K-562 leukemia
  TGI: > 100 µM
NCI-H522 lung
  TGI: > 100 µM
NCI-H226 lung
  TGI: > 100 µM
HOP-92 NSCLC
  TGI: > 100 µM
IGROV1 ovarian
  TGI: > 100 µM
OVCAR-4 ovarian
  TGI: > 100 µM
A498 renal
  TGI: 93.3 µM
NCI/ADR-RES ovarian
  TGI: > 100 µM
HL-60(TB) leukemia
  TGI: > 100 µM
SK-MEL-5 melanoma
  TGI: > 100 µM
HT29 colon
  TGI: > 100 µM
NCI-H23 lung
  TGI: > 100 µM
SN12C renal
  TGI: > 100 µM
ACHN renal
  TGI: > 100 µM
SNB-75 CNS
  TGI: > 100 µM
MALME-3M melanoma
  TGI: > 100 µM
MCF7 breast
  TGI: > 100 µM

## CC(=O)C1(C)CC(C#N)(C#N)C(C#N)=C1N (stereo not given)
K-562 leukemia
  TGI: > 100 µM
NCI-H522 lung
  TGI: > 100 µM
NCI-H226 lung
  TGI: > 100 µM
HOP-92 NSCLC
  TGI: 55.3 µM
IGROV1 ovarian
  TGI: > 100 µM
OVCAR-4 ovarian
  TGI: > 100 µM
A498 renal
  TGI: > 100 µM
NCI/ADR-RES ovarian
  TGI: > 100 µM
HL-60(TB) leukemia
  TGI: > 100 µM
SK-MEL-5 melanoma
  TGI: > 100 µM
HT29 colon
  TGI: > 100 µM
NCI-H23 lung
  TGI: > 100 µM
SN12C renal
  TGI: > 100 µM
ACHN renal
  TGI: > 100 µM
SNB-75 CNS
  TGI: > 100 µM
MALME-3M melanoma
  TGI: > 100 µM
MCF7 breast
  TGI: > 100 µM

## COc1cc(/C=N/c2ccccn2)cc(OC)c1OC
K-562 leukemia
  TGI: > 100 µM
NCI-H522 lung
  TGI: > 100 µM
NCI-H226 lung
  TGI: > 100 µM
HOP-92 NSCLC
  TGI: > 100 µM
IGROV1 ovarian
  TGI: > 100 µM
OVCAR-4 ovarian
  TGI: > 100 µM
A498 renal
  TGI: > 100 µM
NCI/ADR-RES ovarian
  TGI: > 100 µM
HL-60(TB) leukemia
  TGI: > 100 µM
SK-MEL-5 melanoma
  TGI: > 100 µM
HT29 colon
  TGI: > 100 µM
NCI-H23 lung
  TGI: > 100 µM
SN12C renal
  TGI: > 100 µM
ACHN renal
  TGI: > 100 µM
SNB-75 CNS
  TGI: > 100 µM
MALME-3M melanoma
  TGI: > 100 µM
MCF7 breast
  TGI: > 100 µM

## CC1OC(OC2C(OC(=O)[C@]34CCC(C)(C)C[C@H]3C3=CC[C@@H]5[C@@]6(C)CC[C@H](OC7OC(CO)C(O)C(O)C7OC7OC(CO)C(O)C(O)C7O)C(C)(C)[C@@H]6CC[C@@]5(C)[C@]3(C)CC4)OCC(O)C2O)C(O)C(O)C1OC1OCC(O)C(OC2OCC(O)C(O)C2O)C1O (stereo not given in full)
K-562 leukemia
  TGI: 18.8 µM and 17.6 µM
NCI-H522 lung
  TGI: 7.68 µM and 6.53 µM
NCI-H226 lung
  TGI: 13.9 µM and 12.4 µM
HOP-92 NSCLC
  TGI: 5.81 µM and 4.97 µM
IGROV1 ovarian
  TGI: 26.4 µM and 24.3 µM
OVCAR-4 ovarian
  TGI: 19.2 µM and 21.6 µM
A498 renal
  TGI: 4.44 µM and 3.95 µM
NCI/ADR-RES ovarian
  TGI: 18.1 µM and 16.2 µM
HL-60(TB) leukemia
  GI50: 1 µM and 2.72 µM
  TGI: 4.15 µM and 7.43 µM
SK-MEL-5 melanoma
  TGI: 8.11 µM and 10.3 µM
HT29 colon
  TGI: 10.8 µM and 9.01 µM
NCI-H23 lung
  TGI: 8.52 µM and 6.54 µM
SN12C renal
  TGI: 4.82 µM and 4.43 µM
ACHN renal
  TGI: 15.4 µM and 18.3 µM
SNB-75 CNS
  TGI: 17 µM and 20.8 µM
MALME-3M melanoma
  TGI: 6.6 µM and 7.27 µM
MCF7 breast
  GI50: 3.76 µM and 1.87 µM
  TGI: 11 µM and 7.69 µM
